Measured values as given in the C3SDB collision cross section collection.
Where “and” joins values, the source holds several entries; their conditions need not be identical. Equal values may be shown once. Each block holds one molecule with its values, some of them ahead of it.

Columns and labels:
[1] = instrument: DT, single field, calibrated with Agilent tune mix (Agilent)
[2] = instrument: DT, single field, calibrated with ESI Low Concentration Tuning Mix (Agilent)
[3] = [M+H]+; instrument: TW; calibrated with polyalanine and drug standards

- collision cross section (N2) ([1]; [M+Na]+): 171.7 Å²
- collision cross section (N2) ([1]; [M-H]-): 156.76 Å²
SMILES: Nc1nc(=O)c2ncn([C@H]3C[C@H](O)[C@@H](CO)O3)c2[nH]1 [Deoxyguanosine]

- collision cross section (N2) ([1]; [M+H]+): 200.9 Å²
- collision cross section (N2) ([1]; [M+Na-2H]-): 205.49 Å²
SMILES: C[C@H](CCC(=O)NCC(=O)O)[C@H]1CC[C@H]2[C@@H]3CC[C@@H]4C[C@H](O)CC[C@]4(C)[C@H]3CC[C@]12C [Glycolithocholic acid]

- collision cross section (N2) ([1]; [M+Na-2H]-): 159.11 Å²
SMILES: O=P(O)(O)OC[C@H]1O[C@H](OP(=O)(O)O)[C@H](O)[C@@H](O)[C@@H]1O [Alpha-D-Glucose 1,6-bisphosphate]

- collision cross section (N2) ([1]; [M+Na]+): 192.5 Å²
SMILES: CCCCC/C=C/C=C1/C(=O)C=C[C@@H]1C/C=C\CCCC(=O)O [15-Deoxy-delta-12,14-PGJ2]

- collision cross section (N2) ([1]; [M-H]-): 129.01 Å²
SMILES: CC(CCC(=O)O)CC(=O)O (configuration not stated) [3-Methyladipic acid]

- collision cross section (N2) ([1]; [M-H]-): 116.91 Å²
SMILES: N[C@H](CC(=O)O)C(=O)O [D-Aspartic acid]

- collision cross section (N2) ([1]; [M+H]+): 187.7 Å²
SMILES: Nc1nc(=O)c2ncn([C@H]3C[C@H](O)[C@@H](COP(=O)(O)OP(=O)(O)O)O3)c2[nH]1 [dGDP]

- collision cross section (N2) ([1]; [M+2Na-3H]-): 162.06 Å²
- collision cross section (N2) ([1]; [M+H]+): 144.1 Å²
SMILES: C[C@@H]1NC(=O)N[C@@H]1CCCCCC(=O)O [Dethiobiotin]

- collision cross section (N2) ([1]; [M+H]+): 162.2 Å²
- collision cross section (N2) ([1]; [M+Na-2H]-): 149.33 Å²
SMILES: N[C@@H](Cc1ccc(OP(=O)(O)O)cc1)C(=O)O [O-Phosphotyrosine]

- collision cross section (N2) ([1]; [M+H]+): 152.8 Å²
- collision cross section (N2) ([1]; [M-H2O-H]-): 144.47 Å²
SMILES: C[C@H](O)C(=O)C1=Nc2c([nH]c(N)nc2=O)NC1 [Sepiapterin]

- collision cross section (N2) ([1]; [M-H]-): 215.74 Å²
SMILES: C[C@]12CC[C@@H]3c4ccc(O[C@@H]5O[C@H](C(=O)O)[C@@H](O)[C@H](O)[C@H]5O)cc4CC[C@H]3[C@@H]1CCC2=O [Estrone-3-glucuronide]

- collision cross section (N2) ([1]; [M+H]+): 140.8 Å²
- collision cross section (N2) ([1]; [M-H]-): 134.28 Å²
SMILES: NC(CCCC(N)C(=O)O)C(=O)O (configuration not stated) [Diaminopimelic acid]

- collision cross section (N2) ([1]; [M+H]+): 165.2 Å²
SMILES: NC(=O)c1ccc[n+]([C@@H]2O[C@H](COP(=O)([O-])O)[C@@H](O)[C@H]2O)c1 [Nicotinamide ribotide]

- collision cross section (N2) ([1]; [M+H]+): 136.9 Å²
SMILES: CC(=O)N[C@@H](CCCN)C(=O)O [N2-Acetyl-L-ornithine]

- collision cross section (N2) ([1]; [M-H]-): 120.55 Å²
SMILES: N[C@@H](CS(=O)(=O)O)C(=O)O [L-Cysteic acid]

- collision cross section (N2) ([1]; [M+Na]+): 170.4 Å²
- collision cross section (N2) ([1]; [M-H]-): 159.67 Å²
SMILES: CNc1ncnc2c1ncn2[C@@H]1O[C@H](CO)[C@@H](O)[C@H]1O [N6-methyladenosine]

- collision cross section (N2) ([1]; [M+Na]+): 154.2 Å²
SMILES: O=C(CO)[C@@H](O)[C@H](O)[C@H](O)COP(=O)(O)O [D-Fructose-6-phosphate]

- collision cross section (N2) ([1]; [M-H]-): 135.74 Å²
SMILES: O=C(O)CCc1ccccc1 [3-Phenylpropanoic acid]

- collision cross section (N2) ([2]; [M+H]+): 138.1 Å² and 141.4 Å²
- collision cross section (N2) ([2]; [M+Na]+): 143.5 Å² and 146.5 Å²
- collision cross section (N2) [3]: 145.2 Å²
SMILES: N[C@H]1C(O)O[C@H](CO)[C@@H](O)[C@@H]1O (some centres not stated) [GLUCOSAMINE]

- collision cross section (N2) ([1]; [M+Na]+): 171.8 Å²
SMILES: O=c1ccn([C@@H]2O[C@H](COP(=O)(O)O)[C@@H](O)[C@H]2O)c(=O)[nH]1 [Uridine 5'-monophosphate]

- collision cross section (N2) ([1]; [M-H]-): 183.12 Å²
SMILES: C[C@]12CCC(=O)C=C1CC[C@@H]1[C@@H]2CC[C@@]2(C)[C@H]1CC[C@]2(O)C(=O)CO [11-Deoxycortisol]

- collision cross section (N2) ([1]; [M+H]+): 138.7 Å²
- collision cross section (N2) ([1]; [M-H]-): 134.49 Å²
SMILES: OCCc1c[nH]c2ccc(O)cc12 [5-Hydroxytryptophol]

- collision cross section (N2) ([1]; [M+H]+): 144.2 Å²
- collision cross section (N2) ([1]; [M+Na-2H]-): 133.29 Å²
SMILES: N[C@@H](CSS(=O)(=O)O)C(=O)O [Cysteine-S-sulfate]

- collision cross section (N2) ([1]; [M+Na]+): 146.7 Å²
SMILES: O=C(CO)COP(=O)(O)O [Dihydroxyacetone phosphate]

- collision cross section (N2) ([1]; [M+H-H2O]+): 130.5 Å²
SMILES: O=C(O)c1cccnc1C(=O)O [Quinolinate]

- collision cross section (N2) ([1]; [M+H]+): 188.3 Å²
SMILES: CCCCCCCCCCCCCCCCCC(N)=O [Stearamide]

- collision cross section (N2) ([2]; [M+H]+): 124.4 Å²
- collision cross section (N2) ([2]; [M-H]-): 121.1 Å²
- collision cross section (N2) [3]: 122.2 Å²
SMILES: NC(=O)c1ccccc1O [SALICYLAMIDE]

- collision cross section (N2) ([2]; [M+H]+): 134.4 Å²
- collision cross section (N2) ([2]; [M-H]-): 132.4 Å²
- collision cross section (N2) [3]: 132.3 Å²
SMILES: Cc1ncc(CO)c(CO)c1O [PYRIDOXINE]

- collision cross section (N2) ([2]; [M+H]+): 149.3 Å² and 149.6 Å²
- collision cross section (N2) ([2]; [M+Na]+): 152.8 Å² and 153.1 Å²
- collision cross section (N2) [3]: 146 Å²
SMILES: Nc1ccccc1C(=O)CC(N)C(=O)O (configuration not stated) [KYNURENINE]

- collision cross section (N2) ([2]; [M+H]+): 132.3 Å²
- collision cross section (N2) ([2]; [M-H]-): 126.6 Å²
SMILES: O=C(O)c1cccnc1C(=O)O [QUINOLINATE]

- collision cross section (N2) ([2]; [M+Na]+): 149.4 Å²
- collision cross section (N2) ([2]; [M-H]-): 146.9 Å²
SMILES: CC(=O)NC(Cc1ccccc1)C(=O)O (configuration not stated) [N-ACETYLPHENYLALANINE]

- collision cross section (N2) ([2]; [M+K]+): 178.6 Å²
- collision cross section (N2) ([2]; [M+Na]+): 175.3 Å²
- collision cross section (N2) ([2]; [M-H]-): 176.9 Å²
SMILES: OC[C@H]1O[C@@H](O[C@H]2[C@H](O)[C@@H](O)[C@H](O)O[C@@H]2CO)[C@H](O)[C@@H](O)[C@H]1O [LACTOSE]

- collision cross section (N2) ([2]; [M+H]+): 136.7 Å²
- collision cross section (N2) ([2]; [M+Na]+): 151.1 Å²
- collision cross section (N2) ([2]; [M-H]-): 133.9 Å²
SMILES: O=C(O)c1cc(=O)c2ccccc2[nH]1 [KYNURENATE]

- collision cross section (N2) ([2]; [M+Na]+): 145.3 Å²
- collision cross section (N2) ([2]; [M-H]-): 136.1 Å²
SMILES: CSCC[C@H](NC=O)C(=O)O [N-FORMYL-L-METHIONINE]

- collision cross section (N2) ([2]; [M+Na]+): 139.3 Å²
- collision cross section (N2) ([2]; [M-H]-): 131 Å²
SMILES: CC(=O)N[C@@H](CC(=O)O)C(=O)O [N-ACETYLASPARTATE]

- collision cross section (N2) ([2]; [M+H]+): 122.1 Å²
- collision cross section (N2) ([2]; [M-H]-): 119 Å²
SMILES: Cc1c[nH]c(=O)[nH]c1=O [THYMINE]

- collision cross section (N2) ([2]; [M+H]+): 126.3 Å²
SMILES: Cn1cnc(N)c2ncnc1-2 [3-METHYLADENINE]

- collision cross section (N2) ([2]; [M+Na-2H]-): 186.1 Å²
- collision cross section (N2) ([2]; [M-H]-): 188.2 Å²
SMILES: NCCOP(=O)(O)OP(=O)(O)OC[C@H]1O[C@@H](n2ccc(N)nc2=O)[C@H](O)[C@@H]1O [CDP-ETHANOLAMINE]

- collision cross section (N2) ([2]; [M+H]+): 166 Å²
SMILES: NC(=O)c1ccc[n+]([C@@H]2O[C@H](COP(=O)([O-])O)[C@@H](O)[C@H]2O)c1 [NICOTINAMIDE MONONUCLEOTIDE]

- collision cross section (N2) ([2]; [M+H]+): 188.6 Å²
- collision cross section (N2) ([2]; [M+K]+): 210.7 Å²
- collision cross section (N2) ([2]; [M+Na]+): 212.9 Å²
- collision cross section (N2) ([2]; [M-H]-): 191.9 Å²
SMILES: C[C@]12CCC(=O)C=C1CC[C@@H]1[C@@H]2[C@@H](O)C[C@@]2(C)[C@H]1CC[C@]2(O)C(=O)CO [CORTISOL]

- collision cross section (N2) ([2]; [M+H]+): 134.6 Å²
- collision cross section (N2) ([2]; [M-H]-): 120.9 Å²
SMILES: O=C(O)/C=C/c1cnc[nH]1 [UROCANATE]

- collision cross section (N2) ([2]; [M+Na]+): 146.6 Å²
SMILES: OC[C@H]1O[C@H](O)[C@H](O)[C@@H](O)[C@@H]1O [ALPHA-D-GLUCOSE]

- collision cross section (N2) ([2]; [M+H]+): 186.9 Å²
- collision cross section (N2) ([2]; [M+K]+): 208.4 Å²
- collision cross section (N2) ([2]; [M-H]-): 186.8 Å²
SMILES: C[C@]12C[C@H](O)[C@H]3[C@@H](CCC4=CC(=O)CC[C@@]43C)[C@@H]1CC[C@@H]2C(=O)CO [CORTICOSTERONE]

- collision cross section (N2) ([2]; [M+H]+): 179.2 Å²
- collision cross section (N2) ([2]; [M+Na-2H]-): 183.2 Å²
- collision cross section (N2) ([2]; [M+Na]+): 182.4 Å²
- collision cross section (N2) ([2]; [M-H]-): 184.5 Å²
SMILES: NC(=O)[C@@H]1CCCN1C(=O)[C@H](Cc1cnc[nH]1)NC(=O)[C@@H]1CCC(=O)N1 [THYROTROPIN RELEASING HORMONE]

- collision cross section (N2) ([2]; [M+H]+): 123.2 Å²
- collision cross section (N2) ([2]; [M+Na]+): 132.8 Å²
- collision cross section (N2) ([2]; [M-H]-): 118.5 Å²
- collision cross section (N2) [3]: 120.2 Å²
SMILES: CN1CC(=O)N=C1N [CREATININE]

- collision cross section (N2) ([2]; [M+Na-2H]-): 188.9 Å²
- collision cross section (N2) ([2]; [M+Na]+): 185.3 Å²
- collision cross section (N2) ([2]; [M-H]-): 178.6 Å²
SMILES: O=c1ccn([C@H]2C[C@H](O)[C@@H](COP(=O)(O)OP(=O)(O)OP(=O)(O)O)O2)c(=O)[nH]1 [DEOXYURIDINE TRIPHOSPHATE]

- collision cross section (N2) ([2]; [M+H]+): 188.5 Å²
- collision cross section (N2) ([2]; [M-H]-): 186.1 Å²
- collision cross section (N2) [3]: 184.9 Å²
SMILES: Cc1cc2nc3c(=O)[nH]c(=O)nc-3n(C[C@H](O)[C@H](O)[C@H](O)CO)c2cc1C [RIBOFLAVIN]

- collision cross section (N2) ([2]; [M+H]+): 125.9 Å²
- collision cross section (N2) ([2]; [M-H]-): 120.2 Å²
SMILES: NC(CCO)C(=O)O (configuration not stated) [HOMOSERINE]

- collision cross section (N2) ([2]; [M+H]+): 230.4 Å²
- collision cross section (N2) ([2]; [M-H]-): 230.3 Å²
SMILES: Nc1ncnc2c1ncn2[C@@H]1O[C@H](COP(=O)(O)OP(=O)([O-])OC[C@H]2O[C@@H]([n+]3cccc(C(=O)O)c3)[C@H](O)[C@@H]2O)[C@@H](O)[C@H]1OP(=O)(O)O [NICOTINIC ACID ADENINE DINUCLEOTIDE PHOSPHATE]

- collision cross section (N2) ([2]; [M+H]+): 121 Å² and 125.4 Å²
- collision cross section (N2) ([2]; [M+Na]+): 135.5 Å²
SMILES: Cc1cnc(=O)[nH]c1N [5-METHYLCYTOSINE]

- collision cross section (N2) ([2]; [M+Na-2H]-): 218.2 Å²
- collision cross section (N2) ([2]; [M+Na]+): 209.9 Å²
- collision cross section (N2) ([2]; [M-H]-): 209.5 Å²
SMILES: Cc1cn([C@H]2C[C@H](O)[C@@H](COP(=O)(O)OP(=O)(O)OC3O[C@H](CO)[C@@H](O)[C@H](O)[C@H]3O)O2)c(=O)[nH]c1=O (stereo partly drawn) [DTDP-D-GLUCOSE]

- collision cross section (N2) ([2]; [M+H]+): 120.9 Å²
- collision cross section (N2) ([2]; [M+Na]+): 133.4 Å²
- collision cross section (N2) ([2]; [M-H]-): 124.3 Å²
SMILES: CC(C)[C@H](N)C(=O)O [VALINE]
